# Target: T1, Full-length human PRMT3 (Homo sapiens, UniProt O60678)
# T1 construct: GST-tagged PRMT3; made in house; host or cells: E. coli BL21(DE3) Gold (pGEX-KG)
# Test: PRMT3 biochemical assay (3H-SAM Flashplate, peptide substrate)
# Text: General Materials. S-adenosylmethionine (SAM), S-adenosylhomocysteine (SAH), bicine, Tween20, dimethylsulfoxide (DMSO), bovine skin gelatin (BSG),), isopropyl-β-D-thiogalactopyranoside (IPTG), and Tris(2-carboxyethyl)phosphine hydrochloride solution (TCEP) were purchased from Sigma-Aldrich at the highest level of purity possible. ^3H-SAM was purchase from American Radiolabeled Chemicals with a specific activity of 80 Ci/mmol. 384-well streptavidin Flashplates were purchased from PerkinElmer.
# Substrates. Peptide containing the classic RMT substrate motif was synthesized with an N-terminal linker-affinity tag motif and a C-terminal amide cap by 21st Century Biochemicals. The peptide was purified by high-performance liquid chromatography (HPLC) to greater than 95% purity and confirmed by liquid chromatography mass spectrometry (LC-MS). The sequence was Biot-Ahx-[…]-amide (SEQ ID NO.:11).
# Molecular Biology: : Full-length human PRMT3 (NM_005788.3) isoform 1 transcript clone was amplified from an HEK 293 cDNA library and subcloned into pGEX-KG (GE Life Sciences). The resulting construct encodes an N-terminal GST tag and a thrombin cleavage sequence ([…] […] […] […]) (SEQ ID NO.:12) fused directly to Cys 2 of PRMT3.
# Protein Expression. E. coli (BL21(DE3) Gold, Stratagene) made competent by the CaCl2 method were transformed with the PRMT3 construct and ampicillin selection. Protein over-expression was accomplished by growing the PRMT3 expressing E. coli clone and inducing expression with 0.3 mM IPTG at 16° C. The culture was grown for 12 hours, harvested by centrifugation, and stored at −80° C. for purification.
# Protein Purification. […] GST-tagged PRMT3 eluted with 25-400 mM phosphate in buffer C. Protein was concentrated and buffer was exchanged to 20 mM Tris, 150 mM NaCl, 5% glycerol, 5 mM β-mercaptoethanol, pH7.8 by ultrafiltration. The purity of recovered protein was 70%.
# General Procedure for PRMT3 Enzyme Assays on Peptide Substrates. The assays were all performed in a buffer consisting of 20 mM Bicine (pH=7.6), 1 mM TCEP, 0.005% BSG, and 0.002% Tween 20, prepared on the day of use. Compounds in 100% DMSO (1 ul) were spotted into a polypropylene 384-well V-bottom plates (Greiner) using a Platemate Plus outfitted with a 384-channel head (Thermo Scientific). DMSO (1 ul) was added to Columns 11, 12, 23, 24, rows A-H for the maximum signal control and 1 ul of SAH, a known product and inhibitor of PRMT3, was added to columns 11, 12, 23, 24, rows I-P for the minimum signal control. A cocktail (40 ul) containing the PRMT3 enzyme was added by Multidrop Combi (Thermo-Fisher). The compounds were allowed to incubate with PRMT3 for 30 min at room temperature, then a cocktail (10 ul) containing SAM and peptide was added to initiate the reaction (final volume=51 ul). The final concentrations of the components were as follows: PRMT3 was 0.5 nM, ^3H-SAM was 100 nM, non-radiolabeled SAM was 1.8 uM, peptide was 330 nM, SAH in the minimum signal control wells was 1 mM, and the DMSO concentration was 2%. The assays were stopped by the addition of potassium chloride (10 ul) to a final concentration of 100 mM. 50 ul of the reaction in the 384-well polypropylene plate was then transferred to a 384-well Flashplate and the biotinylated peptides were allowed to bind to the streptavidin surface for at least 1 hour before being washed once with 0.1% Tween20 in a Biotek ELx405 plate washer. The plates were then read in a PerkinElmer TopCount plate reader to measure the quantity of ^3H-labeled peptide bound to the Flashplate surface, measured as disintegrations per minute (dpm) or alternatively, referred to as counts per minute (cpm).
# Where dpm=disintegrations per minute, cmpd=signal in assay well, and min and max are the respective minimum and maximum signal controls.
# Where top and bottom are the normally allowed to float, but may be fixed at 100 or 0 respectively in a 3-parameter fit. […]
# T1 sequence (O60678 with tags, fused parts or gaps): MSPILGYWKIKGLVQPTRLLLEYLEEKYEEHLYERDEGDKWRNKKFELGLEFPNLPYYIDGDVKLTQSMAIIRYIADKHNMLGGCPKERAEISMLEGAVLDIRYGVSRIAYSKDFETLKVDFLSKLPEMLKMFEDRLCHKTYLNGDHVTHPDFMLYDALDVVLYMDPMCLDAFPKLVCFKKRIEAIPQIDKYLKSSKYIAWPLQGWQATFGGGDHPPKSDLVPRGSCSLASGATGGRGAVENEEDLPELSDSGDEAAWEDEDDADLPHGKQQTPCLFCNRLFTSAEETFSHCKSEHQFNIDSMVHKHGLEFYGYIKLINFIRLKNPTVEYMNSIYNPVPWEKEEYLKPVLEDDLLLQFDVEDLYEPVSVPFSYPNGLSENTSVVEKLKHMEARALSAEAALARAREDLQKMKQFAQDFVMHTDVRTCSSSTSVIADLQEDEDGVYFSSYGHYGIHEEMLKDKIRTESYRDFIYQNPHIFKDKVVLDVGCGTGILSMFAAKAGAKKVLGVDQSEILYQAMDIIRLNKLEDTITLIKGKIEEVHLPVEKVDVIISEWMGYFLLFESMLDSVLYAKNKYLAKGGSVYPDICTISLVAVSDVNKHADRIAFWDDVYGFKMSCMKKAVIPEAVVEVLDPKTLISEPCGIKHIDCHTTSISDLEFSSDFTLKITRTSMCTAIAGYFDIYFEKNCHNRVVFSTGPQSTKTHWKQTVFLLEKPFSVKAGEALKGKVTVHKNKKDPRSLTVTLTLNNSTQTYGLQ
row,Structure (SMILES),IC50 [µM]
1,CN(CCN)Cc1n[nH]cc1-c1ccc(C#N)cc1 [Compound 100],3.01 to 10
2,Cc1ccc(-c2n[nH]cc2CN(C)CCN)cc1Cl [Compound 126],1.01 to 3
3,COc1cccc(-c2n[nH]cc2CN(C)CCN)c1 [Compound 130],3.01 to 10
4,COc1ccc(-c2n[nH]cc2CN(C)CCN)cc1F [Compound 134],3.01 to 10
5,Cc1cccc(-c2n[nH]cc2CN(C)CCN)c1 [Compound 131],3.01 to 10
6,COc1ccc(-c2n[nH]cc2CN(C)CCN)c(F)c1 [Compound 107],3.01 to 10
7,CN(CCN)Cc1c[nH]nc1-c1ccc(F)c(Cl)c1 [Compound 124],1.01 to 3
8,Cc1[nH]nc(-c2ccc(F)cc2)c1CN(C)CCN [Compound 169],> 10
9,CN(CCN)Cc1c[nH]nc1-c1ccc(OCC(F)(F)F)cc1 [Compound 96],3.01 to 10
10,CN(CCN)Cc1c[nH]nc1-c1ccc(Cl)cc1 [Compound 95],1.01 to 3
11,COCCn1cc(CN(C)CCN)c(-c2ccc(F)cc2)n1 [Compound 5],> 10
12,COc1ccc(-c2n[nH]cc2CN(C)CCN)c(Cl)c1 [Compound 146],3.01 to 10
13,CC(=O)c1cccc(-c2n[nH]cc2CN(C)CCN)c1 [Compound 112],3.01 to 10
14,CN(CCN)Cc1cn(CC2CCOCC2)nc1-c1ccc(F)cc1 [Compound 128],> 10
15,CN(CCN)Cc1cnn(CC(O)CO)c1-c1ccc(F)cc1 (stereo not shown) [Compound 113],> 10
16,COc1ccc(-c2n[nH]cc2CN(C)CCN)c(C(F)(F)F)c1 [Compound 154],> 10
17,CN(CCN)Cc1c[nH]nc1-c1cc(C#N)ccc1Cl [Compound 147],> 10
18,COc1ccc(F)cc1-c1n[nH]cc1CN(C)CCN [Compound 160],> 10
19,CN(CCN)Cc1c[nH]nc1-c1cc(Cl)ccc1F [Compound 156],> 10
20,CN(CCN)Cc1c[nH]nc1-c1ccc(C2CC2)cc1 [Compound 116],1.01 to 3
21,COc1ccc(-c2n[nH]cc2CN(C)CCN)c(C)c1 [Compound 155],3.01 to 10
22,CCN(CC)C(=O)c1ccc(-c2n[nH]cc2CN(C)CCN)cc1 [Compound 143],3.01 to 10
23,CN(CCN)Cc1n[nH]cc1-c1ccc(C2CC2)cc1 [Compound 104],> 10
24,CCn1ncc(CN(C)CCNC)c1-c1ccc(F)cc1 [Compound 7],> 10
25,CN(CCN)Cc1c[nH]nc1-c1ccc(C(F)(F)F)cc1F [Compound 148],> 10
26,CN(CCN)Cc1c[nH]nc1-c1cc(F)cc(F)c1 [Compound 111],3.01 to 10

row,Structure (SMILES),IC50 [µM]
1,Cc1ccccc1-c1n[nH]cc1CN(C)CCN [Compound 161],> 10
2,CCN(C)C(=O)c1ccc(-c2n[nH]cc2CN(C)CCN)cc1 [Compound 163],> 10
3,CN(CCN)Cc1c[nH]nc1-c1cc(F)ccc1Cl [Compound 106],> 10
4,Cc1ccc(F)cc1-c1n[nH]cc1CN(C)CCN [Compound 159],> 10
5,COCCOc1ccc(-c2n[nH]cc2CN(C)CCN)cc1 [Compound 167],3.01 to 10
6,CN(CCN)Cc1c[nH]nc1-c1cccc(Cl)c1F [Compound 123],3.01 to 10
7,COCCn1ncc(CN(C)CCN)c1-c1ccc(F)cc1 [Compound 6],> 10
8,CCNC(=O)c1ccc(-c2n[nH]cc2CN(C)CCN)cc1 [Compound 136],> 10
9,COc1cc(F)ccc1-c1n[nH]cc1CN(C)CCN [Compound 151],> 10
10,Cc1cc(Cl)ccc1-c1n[nH]cc1CN(C)CCN [Compound 133],3.01 to 10
11,CN(CCN)Cc1c[nH]nc1-c1cccc(N(C)C)c1 [Compound 149],3.01 to 10
12,Cc1ccc(-c2n[nH]cc2CN(C)CCN)cc1 [Compound 162],3.01 to 10
13,Cc1cc(F)ccc1-c1n[nH]cc1CN(C)CCN [Compound 152],3.01 to 10
14,CN(CCN)Cc1c[nH]nc1-c1ccc(C(F)(F)F)cc1Cl [Compound 135],> 10
15,CN(CCN)Cc1c[nH]nc1-c1cc(F)cc(Cl)c1 [Compound 121],1.01 to 3
16,CN(CCN)Cc1c[nH]nc1-c1ccc(C2CCOCC2)cc1 [Compound 98],0.101 to 1
17,COc1cc(Cl)cc(-c2n[nH]cc2CN(C)CCN)c1 [Compound 127],3.01 to 10
18,CN(CCN)Cc1c[nH]nc1-c1ccc(OC2CC2)cc1 [Compound 114],3.01 to 10
19,CN(CCN)Cc1n[nH]cc1-c1ccc(Cl)cc1 [Compound 102],3.01 to 10
20,CC(C)Cc1ccc(-c2c[nH]nc2CN(C)CCN)cc1 [Compound 170],3.01 to 10
21,Cc1c(F)cccc1-c1n[nH]cc1CN(C)CCN [Compound 129],3.01 to 10
22,CN(CCN)Cc1n[nH]cc1-c1ccc(OC2CC2)cc1 [Compound 119],3.01 to 10
23,CN(CCN)Cc1c[nH]nc1-c1cc(Cl)cc(Cl)c1 [Compound 137],3.01 to 10
24,Cc1cc(C#N)ccc1-c1n[nH]cc1CN(C)CCN [Compound 110],3.01 to 10
25,CN(CCN)Cc1n[nH]cc1-c1ccc(OC(F)(F)F)cc1 [Compound 105],3.01 to 10
26,CCOc1ccc(-c2n[nH]cc2CN(C)CCN)cc1 [Compound 166],3.01 to 10

row,Structure (SMILES),IC50 [µM]
1,CN(CCN)Cc1c[nH]nc1-c1ccc(C(F)(F)F)c(Cl)c1 [Compound 117],1.01 to 3
2,CN(CCN)Cc1n[nH]cc1-c1ccc(C(F)(F)F)cc1 [Compound 103],> 10
3,COc1ccc(-c2n[nH]cc2CN(C)CCN)cc1Cl [Compound 125],3.01 to 10
4,CCn1cc(CN(C)CCNC)c(-c2ccc(F)cc2)n1 [Compound 8],> 10
5,CC(C)Oc1ccc(-c2n[nH]cc2CN(C)CCN)cc1F [Compound 97],3.01 to 10
6,CN(CCN)Cc1c[nH]nc1-c1ccc(F)cc1F [Compound 99],> 10
7,CN(CCN)Cc1n[nH]cc1-c1ccc(C2CCOCC2)cc1 [Compound 145],3.01 to 10
8,Cc1ccc(C#N)cc1-c1n[nH]cc1CN(C)CCN [Compound 158],> 10
9,CC(C)Oc1ccc(-c2c[nH]nc2CN(C)CCN)cc1F [Compound 144],> 10
10,CN(CCN1CCCC1)Cc1c[nH]nc1-c1ccc(C#N)cc1 [Compound 139],> 10
11,CN(CCN)Cc1c[nH]nc1-c1ccc(C(F)(F)F)c(F)c1 [Compound 141],3.01 to 10
12,CCOC(=O)c1cccc(-c2n[nH]cc2CN(C)CCN)c1 [Compound 150],> 10
13,CN(CCN)Cc1c[nH]nc1-c1ccc(Cl)cc1F [Compound 132],3.01 to 10
14,CN(CCN)Cc1c[nH]nc1-c1cccc(Cl)c1 [Compound 122],3.01 to 10
15,Cc1ccc(-c2n[nH]cc2CN(C)CCN)c(F)c1 [Compound 108],3.01 to 10
16,COc1ccc(Cl)cc1-c1n[nH]cc1CN(C)CCN [Compound 157],> 10
17,CN(CCN)Cc1c[nH]nc1-c1ccc(OCCN2CCOCC2)cc1 [Compound 172],3.01 to 10
18,CN(CCN)Cc1c[nH]nc1-c1ccccc1C#N [Compound 140],3.01 to 10
19,NCCN(CCO)Cc1c[nH]nc1-c1ccc(F)cc1 [Compound 171],> 10
20,CC(C)CN(C)C(=O)c1ccc(-c2n[nH]cc2CN(C)CCN)cc1 [Compound 164],> 10
21,CC(O)c1ccc(-c2n[nH]cc2CN(C)CCN)cc1 (stereo not shown) [Compound 115],3.01 to 10
22,COc1ccc(-c2n[nH]cc2CN(C)CCN)cc1 [Compound 153],3.01 to 10
23,CC(C)c1ccc(-c2c[nH]nc2CN(C)CCN)cc1 [Compound 101],> 10
24,CN(CCN)Cc1c[nH]nc1-c1ccc(Cl)c(F)c1 [Compound 118],1.01 to 3

# Reference: patent publication US9346761B2, “Arginine methyltransferase inhibitors and uses thereof” (Epizyme, Inc., priority 2013, dated 2016)
